Experimental data published in patent US12435044B2, “Pyridazinone herbicides and pyridazinone intermediates used to prepare a herbicide” (FMC Corporation, priority 2018, dated 2025).

Key:
Format in all cases: in vivo
[1] = test system: ryegrass, Italian (Lolium multiflorum); assay: Test C pre-/postemergence greenhouse test; settings: Preemergence, scale 0 to 100
Procedure, shortened: (§1)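 Seeds sown in silt loam soil and sprayed preemergence with test chemicals in a non-phytotoxic solvent mixture containing surfactant. Postemergence plants, 2 to 18 cm (1- to 4-leaf stage), grown in peat/vermiculite planting medium and treated with the same formulation. Visual injury rated 0–100 versus untreated controls after 13 to 21 d in the greenhouse.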

[2] = test system: johnsongrass (Sorghum halepense); assay: Test C pre-/postemergence greenhouse test; settings: Preemergence, scale 0 to 100
Procedure, shortened: as §1

[3] = test system: barnyardgrass (Echinochloa crus-galli); assay: Test C pre-/postemergence greenhouse test; settings: scale 0 to 100
Procedure, shortened: as §1

[4] = test system: crabgrass, large (Digitaria sanguinalis); assay: Test C pre-/postemergence greenhouse test; settings: scale 0 to 100
Procedure, shortened: as §1

[5] = test system: wheat, winter (winter wheat, Triticum aestivum); assay: Test C pre-/postemergence greenhouse test; settings: scale 0 to 100
Procedure, shortened: as §1

[6] = test system: foxtail, giant (Setaria faberii); assay: Test C pre-/postemergence greenhouse test; settings: scale 0 to 100
Procedure, shortened: as §1

[7] = test system: blackgrass (Alopecurus myosuroides); assay: Test C pre-/postemergence greenhouse test; settings: scale 0 to 100
Procedure, shortened: as §1

[8] = test system: poinsettia, wild (Euphorbia heterophylla); assay: Test C pre-/postemergence greenhouse test; settings: Preemergence, scale 0 to 100
Procedure, shortened: as §1

[9] = test system: surinam grass (Brachiaria decumbens); assay: Test C pre-/postemergence greenhouse test; settings: Preemergence, scale 0 to 100
Procedure, shortened: as §1

[10] = test system: field poppy (Papaver rhoeas); assay: Test C postemergence greenhouse test; settings: scale 0 to 100
Source text: Seeds of plant species selected from blackgrass (Alopecurus myosuroides), ryegrass, Italian (Lolium multiflorum), wheat, winter (winter wheat, Triticum aestivum), galium (catchweed bedstraw, Galium aparine), corn (Zea mays), crabgrass, large (Digitaria sanguinalis), foxtail, giant (Setaria faberii), johnsongrass (Sorghum halepense), lambsquarters (Chenopodium album), morningglory (Ipomoea coccinea), nutsedge, yellow (Cyperus esculentus), pigweed (Amaranthus retroflexus), ragweed (common ragweed, Ambrosia elatior), soybean (Glycine max), barnyardgrass (Echinochloa crus-galli), oilseed rape (Brassica napus), waterhemp (common waterhemp, Amaranthus rudis), pigweed, palmer (Amaranthus palmeri), kochia (Kochia scoparia), oat, wild (Avena fatua), surinam grass (Brachiaria decumbens), windgrass (Apera spica-venti), poinsettia, wild (Euphorbia heterophylla) and velvetleaf (Abutilon theophrasti) were planted into a silt loam soil and treated preemergence with test chemicals formulated in a non-phytotoxic solvent mixture which included a surfactant.
At the same time, plants selected from these crop and weed species and also chickweed (common chickweed, Stellaria media), buckwheat, wild (Polygonum convolvulus), mustard, wild (Sinapis arvensis), field poppy (Papaver rhoeas), field violet (Viola arvensis), nightshade (eastern black nightshade, Solanum ptycanthum), speedwell (bird's-eye speedwell, Veronica persica), horseweed (Conyza canadensis), cutleaf geranium (Geranium dissectum), and Canada thistle (Cirsium arvense) were planted in pots containing Redi-Earth® planting medium (Scotts Company, 14111 Scottslawn Road, Marysville, Ohio 43041) comprising spaghnum peat moss, vermiculite, wetting agent and starter nutrients and treated with postemergence applications of test chemicals formulated in the same manner. Plants ranged in height from 2 to 18 cm (1- to 4-leaf stage) for postemergence treatments. Treated plants and controls were maintained in a greenhouse for 13 to 21 d, after which time all species were compared to controls and visually evaluated. Plant response ratings, summarized in Table C-1 (postemergence) and C-2 (preemergence), are based on a scale of 0 to 100 where 0 is no effect and 100 is complete control. A dash (-) response means no test result.

Which “Plant response rating, Ryegrass, Italian” value ([1]; 31 g ai/ha) does the source give for `Cc1ccc2ccc(F)cc2c1-c1c(O)c(Cl)nn(C)c1=O` [Cpd. No. 21] here?
Its value is 98.

What about the “Plant response rating, Ryegrass, Italian” value ([1]; 61 g ai/ha) of the same compound?
Its value is 50.

What about the “Plant response rating, Ryegrass, Italian” value ([1]; 62 g ai/ha) of the same compound?
The value was 98.

What about the “Plant response rating, Ryegrass, Italian” value ([1]; 125 g ai/ha) of the same compound?
Its value is 100.

What about the “Plant response rating, Johnsongrass” value ([2]; 31 g ai/ha) of the same compound?
Its value is 10.

And the “Plant response rating, Johnsongrass” value ([2]; 61 g ai/ha)?
Its value is 5.

And the “Plant response rating, Johnsongrass” value ([2]; 62 g ai/ha)?
Its value is 50.

And the “Plant response rating, Johnsongrass” value ([2]; 125 g ai/ha)?
The value was 65.

And the “Plant response rating, Barnyardgrass” value ([3]; Postemergence, 16 g ai/ha)?
The value was 60.

And the “Plant response rating, Barnyardgrass” value ([3]; Postemergence, 31 g ai/ha)?
Its value is 85.

And the “Plant response rating, Barnyardgrass” value ([3]; Postemergence, 62 g ai/ha)?
Its value is 90.

What about the “Plant response rating, Barnyardgrass” value ([3]; Postemergence, 125 g ai/ha) of the same compound?
Its value is 90.

And the “Plant response rating, Barnyardgrass” value ([3]; Preemergence, 31 g ai/ha)?
Its value is 75.

And the “Plant response rating, Barnyardgrass” value ([3]; Preemergence, 61 g ai/ha)?
Its value is 25.

What about the “Plant response rating, Barnyardgrass” value ([3]; Preemergence, 62 g ai/ha) of the same compound?
Its value is 85.

And the “Plant response rating, Barnyardgrass” value ([3]; Preemergence, 125 g ai/ha)?
Its value is 95.

What about the “Plant response rating, Crabgrass, Large” value ([4]; Postemergence, 16 g ai/ha) of the same compound?
Its value is 40.

And the “Plant response rating, Crabgrass, Large” value ([4]; Postemergence, 31 g ai/ha)?
The value was 70.

And the “Plant response rating, Crabgrass, Large” value ([4]; Postemergence, 62 g ai/ha)?
The value was 40.

And the “Plant response rating, Crabgrass, Large” value ([4]; Postemergence, 125 g ai/ha)?
The value was 70.

What about the “Plant response rating, Crabgrass, Large” value ([4]; Preemergence, 31 g ai/ha) of the same compound?
Its value is 25.

And the “Plant response rating, Crabgrass, Large” value ([4]; Preemergence, 61 g ai/ha)?
The value was 0.

And the “Plant response rating, Crabgrass, Large” value ([4]; Preemergence, 62 g ai/ha)?
The value was 30.

And the “Plant response rating, Crabgrass, Large” value ([4]; Preemergence, 125 g ai/ha)?
Its value is 65.

And the “Plant response rating, Wheat” value ([5]; Postemergence, 16 g ai/ha)?
Its value is 45.

What about the “Plant response rating, Wheat” value ([5]; Postemergence, 31 g ai/ha) of the same compound?
Its value is 65.

What about the “Plant response rating, Wheat” value ([5]; Postemergence, 62 g ai/ha) of the same compound?
The value was 78.

What about the “Plant response rating, Wheat” value ([5]; Postemergence, 125 g ai/ha) of the same compound?
The value was 80.

And the “Plant response rating, Wheat” value ([5]; Preemergence, 31 g ai/ha)?
The value was 90.

What about the “Plant response rating, Wheat” value ([5]; Preemergence, 61 g ai/ha) of the same compound?
Its value is 5.

And the “Plant response rating, Wheat” value ([5]; Preemergence, 62 g ai/ha)?
The value was 90.

And the “Plant response rating, Wheat” value ([5]; Preemergence, 125 g ai/ha)?
Its value is 90.

What about the “Plant response rating, Foxtail, Giant” value ([6]; Postemergence, 16 g ai/ha) of the same compound?
Its value is 70.

What about the “Plant response rating, Foxtail, Giant” value ([6]; Postemergence, 31 g ai/ha) of the same compound?
The value was 85.

And the “Plant response rating, Foxtail, Giant” value ([6]; Postemergence, 62 g ai/ha)?
The value was 90.

What about the “Plant response rating, Foxtail, Giant” value ([6]; Postemergence, 125 g ai/ha) of the same compound?
Its value is 93.

What about the “Plant response rating, Foxtail, Giant” value ([6]; Preemergence, 31 g ai/ha) of the same compound?
The value was 85.

What about the “Plant response rating, Foxtail, Giant” value ([6]; Preemergence, 61 g ai/ha) of the same compound?
The value was 10.

What about the “Plant response rating, Foxtail, Giant” value ([6]; Preemergence, 62 g ai/ha) of the same compound?
The value was 98.

And the “Plant response rating, Foxtail, Giant” value ([6]; Preemergence, 125 g ai/ha)?
The value was 100.

And the “Plant response rating, Blackgrass” value ([7]; Postemergence, 16 g ai/ha)?
Its value is 35.

What about the “Plant response rating, Blackgrass” value ([7]; Postemergence, 31 g ai/ha) of the same compound?
The value was 60.

And the “Plant response rating, Blackgrass” value ([7]; Postemergence, 62 g ai/ha)?
Its value is 65.

And the “Plant response rating, Blackgrass” value ([7]; Postemergence, 125 g ai/ha)?
Its value is 70.

What about the “Plant response rating, Blackgrass” value ([7]; Preemergence, 31 g ai/ha) of the same compound?
Its value is 50.

And the “Plant response rating, Blackgrass” value ([7]; Preemergence, 61 g ai/ha)?
Its value is 35.

And the “Plant response rating, Blackgrass” value ([7]; Preemergence, 62 g ai/ha)?
The value was 85.

And the “Plant response rating, Blackgrass” value ([7]; Preemergence, 125 g ai/ha)?
Its value is 85.

What about the “Plant response rating, Poinsettia, Wild” value ([8]; 31 g ai/ha) of the same compound?
The value was 5.

And the “Plant response rating, Poinsettia, Wild” value ([8]; 61 g ai/ha)?
Its value is 0.

And the “Plant response rating, Poinsettia, Wild” value ([8]; 62 g ai/ha)?
Its value is 10.

What about the “Plant response rating, Poinsettia, Wild” value ([8]; 125 g ai/ha) of the same compound?
Its value is 25.

And the “Plant response rating, Surinam Grass” value ([9]; 31 g ai/ha)?
The value was 100.

What about the “Plant response rating, Surinam Grass” value ([9]; 61 g ai/ha) of the same compound?
Its value is 80.

What about the “Plant response rating, Surinam Grass” value ([9]; 62 g ai/ha) of the same compound?
Its value is 100.

What about the “Plant response rating, Surinam Grass” value ([9]; 125 g ai/ha) of the same compound?
The value was 100.

What about the “Plant response rating, Field Poppy” value ([10]; 16 g ai/ha) of the same compound?
Its value is 60.

What about the “Plant response rating, Field Poppy” value ([10]; 31 g ai/ha) of the same compound?
Its value is 70.

And the “Plant response rating, Field Poppy” value ([10]; 62 g ai/ha)?
The value was 75.

And the “Plant response rating, Field Poppy” value ([10]; 125 g ai/ha)?
Its value is 98.
